Reference: patent US20240058243A1, “A METHOD FOR FIGHTING MICROORGANISMS USING MENTHOL DERIVATIVES” (priority 2020, published 2024)
In brackets after ≈: the same amount, converted by molar mass. Read-outs that look alike come from different tables or passages of the source.

How the values were obtained:
Escherichia coli = test: Minimum inhibitory concentration, pure culture; type: cell-based; details: for MIC: Escherichia coli, read-out: MIC Escherichia coli; for MIC Escherichia coli: Example 2 table (oral care)
Text: (§1) Antimicrobial activity was also investigated with pure cultures for three different cooling compounds. The results of Triclosan, a well-known antimicrobial, are shown for comparison. (Table 7):
(§2) The differential inhibition of microorganisms was also investigated with strains that typically are found in the oral cavity and that are related to oral diseases like gingivitis or caries. The cooling compounds show a better efficacy against Streptococcus mutans, Streptococcus salivarius, Porphyromonas gingivalis and Fusobacterium nucleatum in comparison to Escherichia coli.

Staphylococcus aureus = test: Minimum inhibitory concentration, pure culture; type: cell-based
Text: (§3) Antimicrobial activity was also investigated with pure cultures for three different cooling compounds. The results of Triclosan, a well-known antimicrobial, are shown for comparison.

Corynebacterium xerosis = test: Minimum inhibitory concentration, pure culture; type: cell-based
Text: as §3

[1] = test system: Staphylococcus epidermidis; test: Minimum inhibitory concentration, pure culture; type: cell-based
Text: as §3

Staphylococcus hominis = test: Minimum inhibitory concentration, pure culture; type: cell-based
Text: as §3

Candida albicans = test: Minimum inhibitory concentration, pure culture; type: cell-based
Text: as §3

Anaerococcus octavius = test: Minimum inhibitory concentration, pure culture; type: cell-based
Text: as §1
It should be emphasized that Anaerococcus octavius represents the category of anaerobic odour causing bacteria. As a matter of fact, it is very hard to find antimicrobial materials which are active against these germs.

Streptococcus mutans = test: Minimum inhibitory concentration, oral cavity strains; type: cell-based; details: read-out: MIC Streptococcus mutans
Text: as §2

Streptococcus salivarius = test: as above; type: cell-based; details: Example 2 table (oral care)
Text: as §2

Fusobacterium nucleatum = test: as above; type: cell-based; details: read-out: MIC Fusobacterium nucleatum
Text: as §2

Porphyromonas gingivalis = test: as above; type: cell-based; details: read-out: MIC Porphyromonas gingivalis
Text: as §2

[2] = test system: conversion of non-odorous precursor molecules in human axillary sweat; test: Axillary microbiome ex vivo model: HPLC-MS of non-odourous precursors and odorous products; type: cell-based
Text: (§4) The formation of sweat odour was investigated in an axillary microbiome ex vivo model that is based on human axillary sweat. […] This includes accumulation of volatile organic acids related to sweat odour (measured with GC-MS) and conversion of non-odorous precursor molecules to the respective odorous product (measured with HPLC) going along with the development of the typical sweat odour (assessed by a sensory panel).

[3] = test system: volatile organic acids in human axillary sweat; test: Axillary microbiome ex vivo model: volatile organic acids (GC-MS); type: cell-based
Text: as §4

[4] = test system: sweat odour of human axillary sweat; test: Axillary microbiome ex vivo model: sweat odour rating by sensory panel
Text: as §4

[5] = test system: axillary microbiome in human axillary sweat; test: Axillary microbiome ex vivo model: aerobic and anaerobic cell counts; type: cell-based
Text: as §4
(§5) The resulting sweat odour is the result of microbial activity. Those microorganisms that can metabolize the nutrients contained in the sweat can also increase their cell number. Untreated sweat starts with a cell number of about 10^7 cells/ml. These numbers increase by a magnitude during incubation, both for aerobic as well as anaerobic cell count. […] Anaerobic genera like Anaerococcus, Peptoniphilus, and Finegoldia are part of the natural axillary flora (Zeeuwen et al (2012), Troccaz et al (2015)). As some of their assigned species are known to be odour causing (Fuji 2014), the limitation of their increase is of high importance for the management of the typical sweat odor. […] Table 2 refers to change in microbiome composition.

[6] = test system: axillary microbiome in human axillary sweat; test: Axillary microbiome ex vivo model: microbiome composition; type: cell-based
Text: as §4, §5

[7] = Table 7, read-out: MIC Staphylococcus aureus
[8] = Table 7, read-out: MIC Corynebacterium xerosis
[9] = Table 7, read-out: MIC Staphylococcus epidermidis
[10] = Table 7, read-out: MIC Staphylococcus hominis
[11] = Table 7, read-out: MIC Candida albicans
[12] = Table 7, read-out: MIC Anaerococcus octavius
[13] = 5,000 ppm, after 48 h incubation of fresh sweat

CC(C)[C@@H]1CC[C@@H](C)CC12OCC(CO)O2 (mixture of isomers) [Frescolat ® MGA, Menthon Glyceryl Acetal] was tested, and the MIC (Escherichia coli; Table 7) was > 1 µg/mL, the “MIC Escherichia coli” value (Escherichia coli) was >1.000 ppm and the MIC (Staphylococcus aureus; [7]) was 1 µg/mL. It also gave an MIC (Corynebacterium xerosis; [8]) of 500 µg/mL, an MIC [1, 9] of 500 µg/mL and an MIC (Staphylococcus hominis; [10]) of 500 µg/mL. For the same compound, the MIC (Candida albicans; [11]) was > 1 µg/mL, the MIC (Anaerococcus octavius; [12]) was 2.5 µg/mL and the MIC (Streptococcus mutans; Example 2 table (oral care)) was 500 µg/mL. For the same compound, the MIC (Streptococcus salivarius) was 500 µg/mL, the MIC (Fusobacterium nucleatum; Example 2 table (oral care)) was 500 µg/mL and the MIC (Porphyromonas gingivalis; Example 2 table (oral care)) was 250 µg/mL.

In the case of CC(O)C(=O)O[C@@H]1C[C@H](C)CC[C@H]1C(C)C (stereo in doubt) [Frescolat ® ML, Menthyl Lactate], the “Formation of odorous products” value ([2]; 5000 ppm added to fresh sweat) was “drastically reduced formation”, the “Concentration of non-odourous pre-cursour N-α-3-hydroxy-3-methylhexanoyl-L-glutamine (HMHA-Gln)” value ([2]; 5000 ppm, 48 h) was 102.24 ppm and the “Concentration of non-odourous pre-cursour N-α-[(2E)-3-methyl-2-hexenoyl]-L-glutamine (3M2H-Gln)” value ([2]; 5000 ppm, 48 h) was 10.42 ppm. The “Concentration of odorous products, line N-α-3-hydroxy-3-methylhexanoyl-L-glutamine (HMHA-Gln)” value ([2]; 5000 ppm, 48 h) was 0.43 ppm, the “Concentration of odorous products, line N-α-[(2E)-3-methyl-2-hexenoyl]-L-glutamine (3M2H-Gln)” value ([2]; 5000 ppm, 48 h) was 1.69 ppm and the “Formation of volatile organic acids” value ([3]; 5000 ppm added to fresh sweat) was “drastically reduced formation”. The “Concentration of 2-Methylbutyric Acid” value ([3]; 5000 ppm, 48 h) was 0 ppm, the “Concentration of Acetic Acid” value ([3]; 5000 ppm, 48 h) was 11.1 ppm and the “Concentration of Butyric Acid” value ([3]; 5000 ppm, 48 h) was 0.3 ppm. For the same compound, the “Concentration of Capric Acid” value ([3]; 5000 ppm, 48 h) was 1.3 ppm, the “Concentration of Capronic Acid” value ([3]; 5000 ppm, 48 h) was 0.6 ppm and the “Concentration of Caprylic Acid” value ([3]; 5000 ppm, 48 h) was 1.5 ppm. The “Concentration of Lauric Acid” value ([3]; 5000 ppm, 48 h) was 1.7 ppm, the “Concentration of Propanoic Acid” value ([3]; 5000 ppm, 48 h) was 2.2 ppm and the “Concentration of Valeric Acid” value ([3]; 5000 ppm, 48 h) was 0 ppm. For the same compound, the MIC (Escherichia coli; Table 7) was > 5 µg/mL, the “MIC Escherichia coli” value (Escherichia coli) was >5.000 ppm and the MIC (Staphylococcus aureus; [7]) was 250 µg/mL. The MIC (Corynebacterium xerosis; [8]) was 250 µg/mL, the MIC [1, 9] was 500 µg/mL and the MIC (Staphylococcus hominis; [10]) was 250 µg/mL. For the same compound, the MIC (Candida albicans; [11]) was 1 µg/mL, the MIC (Anaerococcus octavius; [12]) was 500 µg/mL and the “Odour development in sensory analysis in comparison to untreated” value ([4]; 5000 ppm added to fresh sweat) was “clear reduction of odour development”. For the same compound, the “Odor rating (smell intensity), mean” value ([4]; 5000 ppm, 48 h, mean of 8 panelists) was 2.4, the MIC (Streptococcus mutans; Example 2 table (oral care)) was 125 µg/mL and the MIC (Streptococcus salivarius) was 500 µg/mL. For the same compound, the MIC (Fusobacterium nucleatum; Example 2 table (oral care)) was 250 µg/mL, the MIC (Porphyromonas gingivalis; Example 2 table (oral care)) was 125 µg/mL and the “Cell number development compared to untreated” value ([5]; 5000 ppm added to fresh sweat) was “slight reduction compared to untreated”. For the same compound, the Aerobic cell count [5, 13] was 6.85E+07 cells/ml, the Anaerobic cell count [5, 13] was 1.08E+07 cells/ml and the “Abundance of anaerobic odour causing genera Anaerococcus, Finegoldia and Moraxella” value ([6]; 5000 ppm added to fresh sweat) was “inhibited in their abundance increase”. The “Relative abundance of Raoultella, Corynebacterium and Staphylococcus versus untreated” value ([6]; 5000 ppm added to fresh sweat) was “same relative abundance as in the untreated sample”, the “Relative abundance Anaerococcus” value ([6]; 5,000 ppm, after 48 h) was 1.6% and the “Relative abundance Below 0.1%” value ([6]; 5,000 ppm, after 48 h) was 1.1%. For the same compound, the “Relative abundance Citrobacter” value ([6]; 5,000 ppm, after 48 h) was 11.7%, the “Relative abundance Corynebacterium” value ([6]; 5,000 ppm, after 48 h) was 2.8% and the “Relative abundance Enterobacter” value ([6]; 5,000 ppm, after 48 h) was 32.6%. The “Relative abundance Finegoldia” value ([6]; 5,000 ppm, after 48 h) was 0.2%, the “Relative abundance Kluyvera” value ([6]; 5,000 ppm, after 48 h) was 0.9% and the “Relative abundance Moraxella” value ([6]; 5,000 ppm, after 48 h) was 0.0%. The “Relative abundance Propionibacterium” value ([6]; 5,000 ppm, after 48 h) was 7.6%, the “Relative abundance Raoultella” value ([6]; 5,000 ppm, after 48 h) was 39.1% and the “Relative abundance Staphylococcus” value ([6]; 5,000 ppm, after 48 h) was 2.2%. For the same compound, the “Relative abundance Streptococcus” value ([6]; 5,000 ppm, after 48 h) was 0.1% and the “Relative abundance Undefined” value ([6]; 5,000 ppm, after 48 h) was 0.0%.

For CC(C)[C@@H]1CC[C@@H](C)C[C@H]1OC(=O)OCCO [Frescolat ® MGC, Menthol Ethylene Glycol Carbonate], the MIC (Escherichia coli; Table 7) was > 1 µg/mL, the “MIC Escherichia coli” value (Escherichia coli) was >1.000 ppm and the MIC (Staphylococcus aureus; [7]) was 500 µg/mL (≈ 2050 µM). For the same compound, the MIC (Corynebacterium xerosis; [8]) was 500 µg/mL (≈ 2050 µM), the MIC (Staphylococcus hominis; [10]) was 500 µg/mL (≈ 2050 µM) and the MIC (Candida albicans; [11]) was > 1 µg/mL. The MIC (Anaerococcus octavius; [12]) was 1 µg/mL (≈ 4.09 µM), the MIC (Streptococcus mutans; Example 2 table (oral care)) was 250 µg/mL (≈ 1020 µM) and the MIC (Streptococcus salivarius) was 500 µg/mL (≈ 2050 µM). It also gave an MIC (Fusobacterium nucleatum; Example 2 table (oral care)) of 16 µg/mL (≈ 65.5 µM) and an MIC (Porphyromonas gingivalis; Example 2 table (oral care)) of 125 µg/mL (≈ 512 µM).

With Oc1cc(Cl)ccc1Oc1ccc(Cl)cc1Cl [Triclosan, reference compound] the MIC (Escherichia coli) was > 1 µg/mL, the “MIC Escherichia coli” value (Escherichia coli) was >1 ppm and the MIC (Staphylococcus aureus; read-out: MIC Staphylococcus aureus) was 2 µg/mL (≈ 6.91 µM). For the same compound, the MIC (Corynebacterium xerosis; read-out: MIC Corynebacterium xerosis) was 8 µg/mL (≈ 27.6 µM), the MIC ([1]; read-out: MIC Staphylococcus epidermidis) was 4 µg/mL (≈ 13.8 µM) and the MIC (Staphylococcus hominis; read-out: MIC Staphylococcus hominis) was 4 µg/mL (≈ 13.8 µM). For the same compound, the MIC (Candida albicans; read-out: MIC Candida albicans) was 16 µg/mL (≈ 55.3 µM), the MIC (Anaerococcus octavius; read-out: MIC Anaerococcus octavius) was > 500 µg/mL and the MIC (Streptococcus mutans) was 8 µg/mL (≈ 27.6 µM). It also gave an MIC (Fusobacterium nucleatum) of 8 µg/mL (≈ 27.6 µM) and an MIC (Porphyromonas gingivalis) of 1 µg/mL (≈ 3.45 µM).
